This is an account of results in patent EP2948433B1, “ATGLISTATIN AS LIPASE INHIBITOR” (Technische Universität Graz, priority 2013, dated 2014).

In one test the target is T1, murine HSL (Mus musculus, UniProt P54310).
T1 construct: His-tag (vector pcDNA4/HisMax); made in house; host or cells: COS-7 cells, transient transfection, 1,000 x g lysate
T1 sequence (P54310 1-759): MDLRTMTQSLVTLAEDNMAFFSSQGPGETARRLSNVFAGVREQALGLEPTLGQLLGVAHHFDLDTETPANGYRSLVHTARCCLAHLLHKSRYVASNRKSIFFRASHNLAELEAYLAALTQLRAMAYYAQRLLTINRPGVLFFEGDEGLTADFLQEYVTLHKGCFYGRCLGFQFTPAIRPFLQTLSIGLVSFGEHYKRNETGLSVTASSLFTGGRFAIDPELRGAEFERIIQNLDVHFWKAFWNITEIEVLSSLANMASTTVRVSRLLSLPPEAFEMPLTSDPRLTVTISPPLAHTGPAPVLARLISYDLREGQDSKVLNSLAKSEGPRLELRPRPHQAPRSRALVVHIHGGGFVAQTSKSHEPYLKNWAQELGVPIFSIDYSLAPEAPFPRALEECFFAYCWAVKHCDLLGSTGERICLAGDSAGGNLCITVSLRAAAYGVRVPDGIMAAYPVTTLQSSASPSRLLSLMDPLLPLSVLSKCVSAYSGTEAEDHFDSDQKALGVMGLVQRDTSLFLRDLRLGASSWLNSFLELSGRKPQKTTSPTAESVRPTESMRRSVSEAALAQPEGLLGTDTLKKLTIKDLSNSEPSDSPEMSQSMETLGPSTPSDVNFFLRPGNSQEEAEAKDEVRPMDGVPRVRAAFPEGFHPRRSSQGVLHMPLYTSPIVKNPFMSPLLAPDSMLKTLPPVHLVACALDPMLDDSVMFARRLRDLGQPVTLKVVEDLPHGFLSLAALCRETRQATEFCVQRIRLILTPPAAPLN
Kind of test: HSL activity, overexpressed in COS-7 lysates, triolein substrate. In kind it is biochemical. The following applies: Fig. 2C. On the procedure: (§1) • Figure 1. Structure of compounds 1 to 3 (reference) and compound 4 (atglistatin) and effect on ATGL activity. For determination of lipase activity, lysates of E. coli overexpressing recombinant strep-tagged ATGL and CGI-58 were incubated with a substrate containing radiolabeled [9,10-3H(N)]-triolein. Subsequently, FA were extracted and quantified by liquid scintillation counting. Lysates of cells expressing empty vector were set as blank. Inhibitors were solubilized in DMSO and added at the indicated concentrations. DMSO alone was used as negative control. (A) Structure and IC50 values of compounds 1-4. (B) Dose-dependent inhibition of ATGL in the presence of compound 3 and 4. […] (C) Lineweaver-Burk plots for kinetic analysis of ATGL inhibition. Experiments were performed at varying concentrations of substrate (0.05 - 3 mM) in presence and absence of compound 4 (Atglistatin). […] Lipase activity of ATGL, HSL, lipoprotein lipase, and pancreatic lipase was determined using triolein as substrate. MGL activity was detected in the presence of rac-(1,3)-monooleoylglycerol as substrate. […] The release of FA (A) and glycerol (B) in the media was determined using commercial kits. […] At the indicated timepoints blood was taken retroorbitally and plasma parameters were measured using commercial kits. […] 8 h after gavage blood was taken retroorbitally and plasma parameters were measured using commercial kits. […]

A further test deals with T2, purified bovine LPL (Bos taurus, UniProt P11151).
T2 construct: purchased Sigma
T2 sequence (P11151 29-478): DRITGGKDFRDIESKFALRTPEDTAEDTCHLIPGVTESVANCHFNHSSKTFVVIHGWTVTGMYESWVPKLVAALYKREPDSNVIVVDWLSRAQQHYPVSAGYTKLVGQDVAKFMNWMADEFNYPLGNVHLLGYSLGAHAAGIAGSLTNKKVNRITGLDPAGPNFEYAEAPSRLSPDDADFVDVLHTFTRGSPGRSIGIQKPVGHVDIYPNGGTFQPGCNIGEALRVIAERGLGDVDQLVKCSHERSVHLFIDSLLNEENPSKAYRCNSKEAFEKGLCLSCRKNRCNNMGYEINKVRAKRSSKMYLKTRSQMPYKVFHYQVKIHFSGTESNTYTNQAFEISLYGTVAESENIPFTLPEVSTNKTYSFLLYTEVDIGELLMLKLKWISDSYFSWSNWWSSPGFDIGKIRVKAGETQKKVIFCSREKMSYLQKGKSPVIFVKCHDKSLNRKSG
Description: Lipoprotein lipase activity, purified enzyme, triolein substrate. In kind it is biochemical. The following applies: Fig. 2D. As for the experimental part: as §1

As to `CN(C)C(=O)Nc1cccc(-c2ccc(N(C)C)cc2)c1` [Atglistatin, atglistatin], the “effect on HSL activity” value at murine HSL is on record as “only minor effects”. The “effect on lipoprotein lipase” value on purified bovine LPL is given as “only minor effects”.
